101 compounds from ChEMBL document CHEMBL3507680, “University of Dundee, Gates Library screen for HepG2 cell viability” can be followed below.

A short description of the data set: Human HepG2 cell viability assay in 384 well format. In kind it is toxicity, cell-based. More on the design: dose 125 nL, time 70.5 hour; concentration not given beside the values. Conditions: HepG2 cells, read-out: Inhibition.
As to `COc1cc(C(=O)Nc2nc(C)no2)ccc1OC(F)F`, the cytotoxicity at 70.5 h came out at 2.82%.

Turning to `CCOCc1ccc(CNC(=O)N2CCC(C(N)=O)C2)cc1` (stereo unspecified), the cytotoxicity at 70.5 h is -2.39%. Next, `c1ccc(-c2nnc(CN3CCOC(Cn4cccn4)C3)o2)cc1` (stereo unspecified): -6.72%. For the compound `Cc1nn(C)c(N2CCOCC2)c1CN[C@@H]1c2ccccc2C[C@@H]1O`, the cytotoxicity at 70.5 h is -0.734%. As to `CS(=O)(=O)Cc1ccc(CNC(=O)N2CCC(C(N)=O)C2)cc1` (stereo unspecified), the cytotoxicity at 70.5 h was -1.33%. Next, `Cc1ccc(-c2nnc(CN3CCOC(Cn4cncn4)C3)o2)cc1` (stereo unspecified): -5.3%; `COc1ccc(C)cc1C(=O)N1CCCC(n2nc(C)nc2C)C1` (stereo unspecified): -8.26%; `CS(=O)(=O)c1ccc(CNC(=O)N2CCC(CO)CC2)cc1`: -2.86%. Turning to `Clc1ccc(-c2nnc(CNCCn3cccn3)o2)c(Cl)c1`, the cytotoxicity at 70.5 h was -6.39%. Next, `Cc1nc(C)n(CC2CCCN2CCOc2ccccc2F)n1` (stereo unspecified): -3.47%; `CCc1nc(CN(C(C)=O)C2CCN(CCc3ccccc3)C2)no1` (stereo unspecified): -5%. Consider `Cc1nc(CN2CCCC(NCCCc3ccccc3)C2)no1` (stereo unspecified), for which the cytotoxicity at 70.5 h was -10.6%. Consider `O=C(CCCN1C(=O)CCC1=O)NCC1(c2ccccc2)CCC1`, for which the cytotoxicity at 70.5 h was -11.4%.

Regarding `Cc1cccc(-n2c(C)cc(C(=O)NS(C)(=O)=O)c2C)c1`, the cytotoxicity at 70.5 h is -14.6%. Next, `CC(NC(=O)NCCn1ccnc1)c1ccc2c(c1)OCCCO2` (stereo unspecified): -13.2%; `CC(NC(=O)NCCCO)c1ccc2c(c1)NC(=O)CO2` (stereo unspecified): -12%. On to `CNC(=O)c1cc(C)n(-c2cccc(OC)c2)c1C`, for which the cytotoxicity at 70.5 h was determined as 11%. Next, `CN(CC(N)=O)CC(=O)N1CC=C(c2ccccc2)CC1`: -10.6%; `c1ccc2nc(N3CCOC(Cn4cccn4)C3)cnc2c1` (stereo unspecified): -11.7%; `CCOc1ccccc1CNC1CCCN(Cc2noc(C)n2)C1` (stereo unspecified): -9.86%. Consider `Cc1cc(C)n(C2CCCN(C(=O)Cc3ccc(C#N)cc3)C2)n1` (stereo unspecified), for which the cytotoxicity at 70.5 h was -14.4%.

In the case of `CNC(=O)CCNC(=O)c1cc(C)n(-c2cccc(OC)c2)c1C`, the cytotoxicity at 70.5 h is -8.45%. Turning to `c1ccc2nc(N3CCOC(Cn4cncn4)C3)cnc2c1` (stereo unspecified), the cytotoxicity at 70.5 h was -5.96%.

Consider `Cc1n[nH]c(C2CN(C(=O)c3cc4c(s3)CCC4)CCO2)n1` (stereo unspecified), for which the cytotoxicity at 70.5 h is -14.5%. Turning to `Cc1cccc(C2(CNC(=O)CO)CCCC2)c1`, the cytotoxicity at 70.5 h was 17.1%. Next, `O=C1C(NS(=O)(=O)c2cccc(F)c2)CCN1Cc1ccccc1` (stereo unspecified): -12%; `O=C1C(NS(=O)(=O)c2ccc(F)c(F)c2)CCN1Cc1ccccc1` (stereo unspecified): -7.62%. For the compound `CCc1n[nH]c(C2CN(C(=O)c3cc(C(N)=O)cs3)CCO2)n1` (stereo unspecified), the cytotoxicity at 70.5 h was -12.1%. Next, `Cc1ccc(CC(=O)N2CCCC(n3nc(C)cc3C)C2)cn1` (stereo unspecified): -9.71%. In the case of `CCc1nc(CN(C(C)=O)C2CCN(CCc3ccncc3)C2)no1` (stereo unspecified), the cytotoxicity at 70.5 h was 11.6%. As for `COc1ccc(CC(=O)N2CCCC(n3nc(C)cc3C)C2)cc1` (stereo unspecified), the cytotoxicity at 70.5 h is -3.95%. Next, `Clc1ccccc1-c1nnc(CNCCn2cccn2)o1`: -8.51%. For `Cc1n[nH]c(C2CN(C(=O)c3cc4c(s3)CCCC4)CCO2)n1` (stereo unspecified), the cytotoxicity at 70.5 h was -4.81%.

As for `CCCc1n[nH]c(C2CN(C(=O)c3cc4c(s3)CCC4)CCO2)n1` (stereo unspecified), the cytotoxicity at 70.5 h is -7.08%. In the case of `COc1ccc(CC(=O)N2CCCC(n3nc(C)cc3C)C2)cc1F` (stereo unspecified), the cytotoxicity at 70.5 h was -9.02%. `CN1CCOC(CNCc2coc(-c3ccc(Cl)cc3)n2)C1` (stereo unspecified): the cytotoxicity at 70.5 h is -2.49%.

For the compound `CN1CCOC(CNCc2coc(-c3cccc(F)c3)n2)C1` (stereo unspecified), the cytotoxicity at 70.5 h stood at 36.2%. As for `Cc1nc(CSCCC(=O)NCc2ccncc2)cs1`, the cytotoxicity at 70.5 h is -6.44%. As to `CCN(CC1CCCO1)C(=O)Nc1cccc(Cl)c1OC` (stereo unspecified), the cytotoxicity at 70.5 h was 24.1%. For the compound `Cc1cccc(NC2CCN(C(=O)Nc3cc(F)ccc3F)CC2)n1`, the cytotoxicity at 70.5 h came out at 0.351%.

In the case of `Cc1cccc(NC2CCN(C(=O)Nc3ccc(F)cc3C)CC2)n1`, the cytotoxicity at 70.5 h was -5.61%. On to `COc1cccc(CNCC2CN(C)CCO2)c1` (stereo unspecified), for which the cytotoxicity at 70.5 h is -7.17%. `COc1ccc(CNC(=O)CCSCc2csc(C)n2)cn1`: the cytotoxicity at 70.5 h was -4.07%. Regarding `COCCOc1ccc(NC(=O)C2CC(=O)N(C(C)C)C2)cn1` (stereo unspecified), the cytotoxicity at 70.5 h was -4.64%. In the case of `COCCOc1ccc(NC(=O)C2CC(=O)N(CC3CC3)C2)cn1` (stereo unspecified), the cytotoxicity at 70.5 h amounted to 19.3%.

Regarding `CCN(CC)C(CNC(=O)c1c(C)noc1C(C)C)c1ccsc1` (stereo unspecified), the cytotoxicity at 70.5 h is 0.627%. With `COCCOc1ccc(NC(=O)C2CC(=O)N(C3CC3)C2)cn1` (stereo unspecified), the cytotoxicity at 70.5 h is -4.78%.

Take `Cc1cc(NC(=O)NCC(C)N2CCOCC2)n(C)n1` (stereo unspecified): the cytotoxicity at 70.5 h is -6.14%. Next, `CCOc1ccc(C#N)cc1NCC(=O)OC`: -2.6%; `CCOc1ccc(C#N)cc1NCC(=O)NC(=O)Nc1ccccc1`: -8.89%; `OC(CN1CCC(c2ccn[nH]2)CC1)c1ccc(F)cc1` (stereo unspecified): 26.4%.

Consider `CCOC(=O)c1sc2ccsc2c1CNC(=O)C(C)(C)C#N`, for which the cytotoxicity at 70.5 h is -2.32%. Consider `Cc1nc(C)n(C2CCCN(C(=O)c3ccc(NC4CC4)nc3)C2)n1` (stereo unspecified), for which the cytotoxicity at 70.5 h was -6.49%.

Regarding `Nc1nc(CN2CCCC(Cn3cncn3)C2)nc2ccccc12` (stereo unspecified), the cytotoxicity at 70.5 h was 1.03%. As to `Cc1nnc(NCc2cccnc2N(C)C)c(C#N)c1C`, the cytotoxicity at 70.5 h is 2.49%.

As for `Cc1cnc(CN(C)C2CCN(CCc3ccccn3)CC2)cn1`, the cytotoxicity at 70.5 h came to 14.7%. Take `CN(Cc1ncc[nH]1)CC(c1cccs1)N1CCOCC1` (stereo unspecified): the cytotoxicity at 70.5 h stood at 17.4%. In the case of `Cc1nc(C)c(C(=O)NCCNC(=O)Cc2ccccc2)s1`, the cytotoxicity at 70.5 h was -1.65%. For `Cc1nc(C)c(C(=O)NCCNC(=O)Cc2cccc(F)c2)s1`, the cytotoxicity at 70.5 h is -9.52%.

As for `CC(NC(=O)NCCCOC1CCCCC1)c1nncn1C` (stereo unspecified), the cytotoxicity at 70.5 h was -6.4%.

`Cc1csc(N2CCCN(C(=O)C(C(C)C)n3cncn3)CC2)n1` (stereo unspecified): the cytotoxicity at 70.5 h stood at 2.24%.

As for `COCCN1CCN(CCCS(C)(=O)=O)CC1C` (stereo unspecified), the cytotoxicity at 70.5 h came to 42.9%. For the compound `NC(=O)c1csc(C(=O)N2CCCCC2Cn2cccn2)c1` (stereo unspecified), the cytotoxicity at 70.5 h was -10.3%. Next, `CC(C)n1ncc2cc(NC(=O)N3CCC(N4CCCC4)C3)cnc21` (stereo unspecified): 1.93%; `Cc1ccc(C(=O)NS(=O)(=O)c2cccc3cnccc23)c(=O)[nH]1`: -6.04%; `CC(C)(C#N)C(=O)N1CCCC(c2cc(C(F)(F)F)[nH]n2)C1` (stereo unspecified): -0.389%.

As to `CCc1ccccc1-n1cc(O)c(C(=O)N2CCCCC2)n1`, the cytotoxicity at 70.5 h was -4.48%.

In the case of `O=C(c1nn(-c2ccccc2F)cc1O)N1CCCC1`, the cytotoxicity at 70.5 h is -2.52%.

With `CCOCCN1CCN(Cc2cccc(C(=O)N(C)C)c2)CC1`, the cytotoxicity at 70.5 h was 40.4%. On to `COCCN1CCN(CCS(=O)(=O)C(F)(F)F)CC1C` (stereo unspecified), for which the cytotoxicity at 70.5 h is -6.2%. With `CC(O)CN1CCN(Cc2cccc(C(=O)N(C)C)c2)CC1` (stereo unspecified), the cytotoxicity at 70.5 h was -2.45%. On to `COc1c(C2CCCN2CC(=O)Nc2nc(C)cs2)c(C)nn1C` (stereo unspecified), for which the cytotoxicity at 70.5 h was found to be 3.79%.

Take `CCc1nc(C2CCCN(C(=O)c3cn(C)nc3C)C2)no1` (stereo unspecified): the cytotoxicity at 70.5 h is 36.3%. Next, `CCc1ccc(CCC(=O)N2CCOCC2c2ncon2)cc1` (stereo unspecified): -9.85%; `Cc1nc(CN(C)C2CCN(CC(=O)NC3CCOCC3)C2)no1` (stereo unspecified): 4.94%; `CC(=O)N(Cc1noc(C2CC2)n1)C1CCN(Cc2cccnc2)C1` (stereo unspecified): -9.51%. Turning to `Cc1cnn(CC2CN(Cc3nnc(-c4occc4C)o3)CCO2)c1` (stereo unspecified), the cytotoxicity at 70.5 h was -18.4%. As for `Cc1ccccc1-n1ncc(C(=O)N2CCCC2c2cnn(C)c2)c1C` (stereo unspecified), the cytotoxicity at 70.5 h was -13.6%. `Cc1nc(CN(C)C2CCN(CC3CCCCC3)C2)no1` (stereo unspecified): the cytotoxicity at 70.5 h was -11.6%. With `N#Cc1ccc(CN2CCN(C(=O)c3cc(C4CC4)[nH]n3)CC2)cc1`, the cytotoxicity at 70.5 h was 0.0729%. In the case of `O=C(C1CCCCN1Cc1nc(-c2ccco2)no1)N1CCCC1` (stereo unspecified), the cytotoxicity at 70.5 h is 4.12%.

Regarding `O=C(NCCNc1ncccn1)C1CCN(C(=O)C2CC2)CC1`, the cytotoxicity at 70.5 h was -13%. `COC(=O)c1cccc(OCCn2nc(-c3cccs3)oc2=O)c1`: the cytotoxicity at 70.5 h is -21.5%.

As to `O=C(C1CCCC1)N1CCN(Cc2nc(-c3ccco3)no2)CC1`, the cytotoxicity at 70.5 h is -9.97%. Regarding `CC(C)c1ncncc1C(=O)N1CCN(Cc2cscn2)CC1`, the cytotoxicity at 70.5 h was found to be 22.6%. Consider `CCN(CC)C(=O)c1nnn(-c2ccc(C)cc2)c1C1CC1`, for which the cytotoxicity at 70.5 h was -7.41%. Next, `NC(=O)C1CN(C(=O)Nc2ccccc2-c2cccs2)CCO1` (stereo unspecified): -1.53%.

As to `Cc1cnn(CC2CN(Cc3nnc(C4CC4)o3)CCO2)c1` (stereo unspecified), the cytotoxicity at 70.5 h was -5.68%. In the case of `NC(=O)C1CN(C(=O)Nc2ccccc2SC(F)(F)F)CCO1` (stereo unspecified), the cytotoxicity at 70.5 h was -10.6%. Next, `c1ccc2oc(CCCN3CCCC3Cn3cncn3)nc2c1` (stereo unspecified): -15.6%. Take `Cc1nn(-c2ccccc2)nc1C(=O)N1CCCC1c1cnn(C)c1` (stereo unspecified): the cytotoxicity at 70.5 h was -18.4%. As to `NC(=O)C1CN(C(=O)Nc2ccccc2N2CCCCCC2)CCO1` (stereo unspecified), the cytotoxicity at 70.5 h was -17.5%.

On to `O=C(c1ccc(Cl)c(Cl)c1)N1CCCC(n2cncn2)C1` (stereo unspecified), for which the cytotoxicity at 70.5 h was -14%. With `O=C(CN1CC(n2cccn2)C1)NCCc1c[nH]c2ccccc12`, the cytotoxicity at 70.5 h was -13.2%. Turning to `CN1CCOC(CN(C(=O)Cc2ccccc2F)c2nccs2)C1` (stereo unspecified), the cytotoxicity at 70.5 h stood at 20.9%. With `CN1CCOC(CN(C(=O)CC2CCCC2)c2nccs2)C1` (stereo unspecified), the cytotoxicity at 70.5 h was 4.76%. Next, `COc1cc(C(=O)NS(=O)(=O)c2cccc(C#N)c2)ccc1C`: -7.93%. Consider `Cc1cc(CC(=O)N(CC2CN(C)CCO2)c2nccs2)no1` (stereo unspecified), for which the cytotoxicity at 70.5 h was -10.3%. As to `Cc1nn(CC(C)C)c(N(C)C)c1CNCc1cccc2c1OCO2`, the cytotoxicity at 70.5 h stood at 10.6%. On to `CC(C)c1noc(C(C)N2CCN(CCO)CC2)n1` (stereo unspecified), for which the cytotoxicity at 70.5 h was -1.66%. Turning to `CCOC(=O)c1sc2ccsc2c1CN`, the cytotoxicity at 70.5 h is -3.38%.
